Each structure is given as a SMILES string. A value given as a limit tells only on which side of the number the result lay.

This assay has as its system Eschericia coli strain ATCC25922. As to the kind of experiment: standard microdilution assay to determine minimum inhibitory concentrations (MICs). The following applies: Escherichia coli, ATCC25922, Eschericia coli strain ATCC25922, standard microdilution assay; read-out: E. coli ATCC25922 MIC. It is filed as cell-based. The protocol: Minimum inhibitory concentrations (MICs) are determined by the microdilution method, typically in a final volume of 100 microliters, according to protocols outlined by The Clinical and Laboratory Standards Institute [CLSI; formerly the National Committee for Clinical Laboratory Standards (NCCLS)]. See CLSI: Methods for dilution antimicrobial susceptibility tests for bacteria that grow aerobically; approved standard-fifth edition. Wayne, Pa.: NCCLS; 2000. The assays can be also be performed in microtiter trays according to conventional methodologies as published by the CLSI. See CLSI. Methods for Dilution Antimicrobial Susceptibility Tests for Bacteria That Grow Aerobically; Approved Standard-Seventh Edition. CLSI Document M7-A7 [ISBN 1-56238-587-9] CLSI, 940 West Valley Road, Suite 1400, Wayne Pa. 19087-1898 USA, 2006).
The compounds of the present invention were tested for antimicrobial activity. The compounds were run against Eschericia coli strain ATCC25922 using a standard microdilution assay to determine minimum inhibitory concentrations (MICs). […] A “N/A” means that data is unavailable. It will be recognized by one skilled in the art that the compounds can be assessed against other bacterial organisms and that the presentation of data for activity against Eschericia coli is illustrative and in no way is intended to limit the scope of the present invention. The compounds of the present invention can be assayed against a range of other microorganisms depending upon the performance activity desired to be gathered. Furthermore, the “+”, “−”, and “N/A” representation and the selection of a cutoff value of 16 micrograms/ml is also illustrative and in no way is intended to limit the scope of the present invention.
A general note: In broth dilution the organism is exposed to a series of concentrations in liquid medium.
The term MIC denotes the smallest concentration in the dilution series that meets the test's criterion for growth inhibition. `O=C(Nc1nc(=O)c(-c2ccc(CNCC3CC3)cc2)c[nH]1)Nc1cc(F)c(F)cc1F` [Compound 275]: the MIC was more than 16 µg/mL.

Regarding `O=C(Nc1nc(=O)c(-c2ccc(CNCCCO)cc2)c[nH]1)Nc1cc(F)c(F)cc1F` [Compound 276], the MIC was more than 16 µg/mL.

As for `O=C(Nc1nc(=O)c(-c2ccc(CNCCCO)cc2)c[nH]1)Nc1ccccc1OC(F)(F)F` [Compound 277], the MIC is more than 16 µg/mL.

With `NCCCNCc1ccc(-c2c[nH]c(NC(=O)Nc3ccccc3OC(F)(F)F)nc2=O)cc1` [Compound 278], the minimal inhibitory concentration (MIC) is less than 16 µg/mL.

Consider `CSCCCNCc1ccc(-c2c[nH]c(NC(=O)Nc3cc(F)c(F)cc3F)nc2=O)cc1` [Compound 281], for which the minimal inhibitory concentration (MIC) was more than 16 µg/mL.

With `CSCCCNCc1ccc(-c2c[nH]c(NC(=O)Nc3ccccc3OC(F)(F)F)nc2=O)cc1` [Compound 282], the MIC is more than 16 µg/mL.

Regarding `O=C(Nc1nc(=O)c(-c2ccc(CNCC(O)CO)cc2)c[nH]1)Nc1ccccc1OC(F)(F)F` (centres unmarked) [Compound 283], the minimal inhibitory concentration (MIC) was more than 16 µg/mL.

As to `O=C(Nc1nc(=O)c(-c2ccc(CNCC(O)CO)cc2)c[nH]1)Nc1cc(F)c(F)cc1F` (centres unmarked) [Compound 284], the MIC is more than 16 µg/mL.

On to `NCCCNCc1c(F)cc(-c2c[nH]c(NC(=O)Nc3ccccc3OC(F)(F)F)nc2=O)cc1F` [Compound 285], for which the MIC was more than 16 µg/mL.

As for `NCCCNCc1c(F)cc(-c2c[nH]c(NC(=O)Nc3cccc(Cl)c3Cl)nc2=O)cc1F` [Compound 286], the MIC was more than 16 µg/mL.

As to `NCCCNCc1c(F)cc(-c2c[nH]c(NC(=O)Nc3cc(F)c(F)cc3F)nc2=O)cc1F` [Compound 287], the MIC was more than 16 µg/mL.

For the compound `Cn1ccnc1CNCc1ccc(-c2c[nH]c(NC(=O)Nc3ccccc3OC(F)(F)F)nc2=O)cc1` [Compound 290], the MIC is more than 16 µg/mL.

For `O=C(Nc1nc(=O)c(-c2ccc(CNCc3nccs3)cc2)c[nH]1)Nc1ccccc1OC(F)(F)F` [Compound 291], the MIC was more than 16 µg/mL.

As for `NCCCN(CCCN)Cc1c(F)cc(-c2c[nH]c(NC(=O)Nc3ccccc3OC(F)(F)F)nc2=O)cc1F` [Compound 294], the minimum inhibitory concentration (MIC) was less than 16 µg/mL.

Take `NCCCN(CCCN)Cc1c(F)cc(-c2c[nH]c(NC(=O)Nc3cc(F)c(F)cc3F)nc2=O)cc1F` [Compound 295]: the minimal inhibitory concentration (MIC) was more than 16 µg/mL.

`NCCCN(CCCN)Cc1c(F)cc(-c2c[nH]c(NC(=O)Nc3cccc(Cl)c3Cl)nc2=O)cc1F` [Compound 297]: the MIC is less than 16 µg/mL.

In the case of `Cn1ccnc1CNCc1ccc(-c2c[nH]c(NC(=O)Nc3cc(F)c(F)cc3F)nc2=O)cc1` [Compound 299], the MIC is more than 16 µg/mL.

Take `O=C(O)CCNCc1ccc(-c2c[nH]c(NC(=O)Nc3ccccc3OC(F)(F)F)nc2=O)cc1` [Compound 300]: the MIC was more than 16 µg/mL.

On to `C[S+]([O-])CCCNCc1ccc(-c2c[nH]c(NC(=O)Nc3cc(F)c(F)cc3F)nc2=O)cc1` (centres unmarked) [Compound 302], for which the MIC is more than 16 µg/mL.

On to `CC(C)=CCN(CCCN)Cc1ccc(-c2c[nH]c(NC(=O)Nc3cc(F)c(F)cc3F)nc2=O)cc1` [Compound 303], for which the MIC is less than 16 µg/mL.

Regarding `CC(C)=CCN(CCCN)Cc1ccc(-c2c[nH]c(NC(=O)Nc3ccccc3OC(F)(F)F)nc2=O)cc1` [Compound 304], the MIC was less than 16 µg/mL.

For `NCCCN(CCCOC(=O)Nc1ccccc1OC(F)(F)F)Cc1ccc(-c2c[nH]c(NC(=O)Nc3ccccc3OC(F)(F)F)nc2=O)cc1` [Compound 305], the MIC was more than 16 µg/mL.

Regarding `NCCCN(CCCN)Cc1ccc(-c2c[nH]c(NC(=O)Nc3cccc(Cl)c3Cl)nc2=O)cc1F` [Compound 307], the minimal inhibitory concentration (MIC) was less than 16 µg/mL.

Take `NCCCN(CCCN)Cc1ccc(-c2c[nH]c(NC(=O)Nc3ccccc3OC(F)(F)F)nc2=O)cc1F` [Compound 308]: the MIC was less than 16 µg/mL.

Turning to `NCCCN(CCCN)Cc1ccc(-c2c[nH]c(NC(=O)Nc3cc(F)c(F)cc3F)nc2=O)cc1F` [Compound 311], the minimum inhibitory concentration (MIC) was more than 16 µg/mL.

For `NCCCN(Cc1ccc(-c2c[nH]c(NC(=O)Nc3ccccc3OC(F)(F)F)nc2=O)cc1)CC1CC1` [Compound 312], the MIC is less than 16 µg/mL.

Turning to `O=C(Nc1nc(=O)c(-c2ccc(CNCc3ncc[nH]3)cc2)c[nH]1)Nc1cc(F)c(F)cc1F` [Compound 313], the minimal inhibitory concentration (MIC) was more than 16 µg/mL.

Consider `O=C(Nc1nc(=O)c(-c2ccc(CNCc3ncc[nH]3)cc2)c[nH]1)Nc1ccccc1OC(F)(F)F` [Compound 314], for which the MIC is more than 16 µg/mL.

Regarding `O=C(O)CCNCc1ccc(-c2c[nH]c(NC(=O)Nc3cc(F)c(F)cc3F)nc2=O)cc1` [Compound 315], the minimal inhibitory concentration (MIC) is more than 16 µg/mL.

Take `CC(C)=CCNCc1ccc(-c2c[nH]c(NC(=O)Nc3ccccc3OC(F)(F)F)nc2=O)cc1` [Compound 316]: the minimum inhibitory concentration (MIC) is more than 16 µg/mL.

As for `CC(C)=CCNCc1ccc(-c2c[nH]c(NC(=O)Nc3cc(F)c(F)cc3F)nc2=O)cc1` [Compound 317], the MIC was more than 16 µg/mL.

As for `O=C(Nc1nc(=O)c(-c2ccc(CNCc3ccncc3)cc2)c[nH]1)Nc1ccccc1OC(F)(F)F` [Compound 319], the MIC was more than 16 µg/mL.

As to `NCCCN(CCC(=O)O)Cc1ccc(-c2c[nH]c(NC(=O)Nc3cc(F)c(F)cc3F)nc2=O)cc1` [Compound 320], the MIC is more than 16 µg/mL.

Consider `NCCCN(CCC(=O)O)Cc1ccc(-c2c[nH]c(NC(=O)Nc3ccccc3OC(F)(F)F)nc2=O)cc1` [Compound 321], for which the minimal inhibitory concentration (MIC) is more than 16 µg/mL.

Turning to `O=C(Nc1nc(=O)c(-c2ccc(CNCCc3ccncc3)cc2)c[nH]1)Nc1cc(F)c(F)cc1F` [Compound 322], the minimum inhibitory concentration (MIC) is more than 16 µg/mL.

On to `O=C(Nc1nc(=O)c(-c2ccc(CNCCc3ccncc3)cc2)c[nH]1)Nc1ccccc1OC(F)(F)F` [Compound 323], for which the MIC is more than 16 µg/mL.

`NCCCN(CCCO)Cc1ccc(-c2c[nH]c(NC(=O)Nc3ccccc3OC(F)(F)F)nc2=O)cc1` [Compound 324]: the MIC is less than 16 µg/mL.

On to `NCCCN(Cc1ccc(-c2c[nH]c(NC(=O)Nc3cc(F)c(F)cc3F)nc2=O)cc1)Cc1ncc[nH]1` [Compound 325], for which the minimal inhibitory concentration (MIC) is more than 16 µg/mL.

On to `NCCCN(Cc1ccc(-c2c[nH]c(NC(=O)Nc3ccccc3OC(F)(F)F)nc2=O)cc1)Cc1ncc[nH]1` [Compound 326], for which the MIC is more than 16 µg/mL.

In the case of `O=C(O)CCCNCc1ccc(-c2c[nH]c(NC(=O)Nc3cc(F)c(F)cc3F)nc2=O)cc1` [Compound 327], the minimal inhibitory concentration (MIC) is more than 16 µg/mL.

For the compound `O=C(O)CCCNCc1ccc(-c2c[nH]c(NC(=O)Nc3ccccc3OC(F)(F)F)nc2=O)cc1` [Compound 328], the MIC was more than 16 µg/mL.

Turning to `O=C(Nc1nc(=O)c(-c2ccc(CNCc3ccncc3)cc2)c[nH]1)Nc1cc(F)c(F)cc1F` [Compound 329], the minimum inhibitory concentration (MIC) is more than 16 µg/mL.

On to `O=C(Nc1nc(=O)c(-c2ccc(CNCc3nccs3)cc2)c[nH]1)Nc1cc(F)c(F)cc1F` [Compound 330], for which the minimum inhibitory concentration (MIC) was more than 16 µg/mL.

Consider `NCCCN(CCCO)Cc1ccc(-c2c[nH]c(NC(=O)Nc3cc(F)c(F)cc3F)nc2=O)cc1` [Compound 331], for which the MIC is more than 16 µg/mL.

As for `N=C(N)NCCCNCc1ccc(-c2c[nH]c(NC(=O)Nc3ccccc3OC(F)(F)F)nc2=O)cc1` [Compound 332], the minimal inhibitory concentration (MIC) was less than 16 µg/mL.

For `NCCCNCc1ccc(-c2c[nH]c(Nc3nc4ccccc4[nH]3)nc2=O)cc1` [Compound 334], the minimum inhibitory concentration (MIC) is less than 16 µg/mL.

With `Cn1ccnc1CN(CCCN)Cc1ccc(-c2c[nH]c(NC(=O)Nc3cc(F)c(F)cc3F)nc2=O)cc1` [Compound 336], the MIC is more than 16 µg/mL.

As for `NCCCN(Cc1ccncc1)Cc1ccc(-c2c[nH]c(NC(=O)Nc3cc(F)c(F)cc3F)nc2=O)cc1` [Compound 337], the MIC was less than 16 µg/mL.

Consider `NCCCN(Cc1ccncc1)Cc1ccc(-c2c[nH]c(NC(=O)Nc3ccccc3OC(F)(F)F)nc2=O)cc1` [Compound 338], for which the MIC was less than 16 µg/mL.

As for `NCCCN(Cc1ccc(-c2c[nH]c(NC(=O)Nc3cc(F)c(F)cc3F)nc2=O)cc1)Cc1nccs1` [Compound 339], the MIC was more than 16 µg/mL.

Take `NCCCN(Cc1ccc(-c2c[nH]c(NC(=O)Nc3ccccc3OC(F)(F)F)nc2=O)cc1)Cc1nccs1` [Compound 340]: the minimum inhibitory concentration (MIC) was more than 16 µg/mL.

Consider `O=C(Nc1nc(=O)c(-c2ccc(CNCCCCO)cc2)c[nH]1)Nc1cc(F)c(F)cc1F` [Compound 341], for which the minimal inhibitory concentration (MIC) is more than 16 µg/mL.

On to `O=C(Nc1nc(=O)c(-c2ccc(CNCCCCO)cc2)c[nH]1)Nc1ccccc1OC(F)(F)F` [Compound 342], for which the MIC is more than 16 µg/mL.

As to `NCCCN(Cc1ccc(-c2c[nH]c(NC(=O)Nc3cc(F)c(F)cc3F)nc2=O)cc1)CC1CC1` [Compound 344], the MIC is less than 16 µg/mL.

Turning to `Cn1ccnc1CN(CCCN)Cc1ccc(-c2c[nH]c(NC(=O)Nc3ccccc3OC(F)(F)F)nc2=O)cc1` [Compound 345], the MIC is more than 16 µg/mL.

On to `CN(CCCNCc1ccc(-c2c[nH]c(NC(=O)Nc3ccccc3OC(F)(F)F)nc2=O)cc1)C(=N)N` [Compound 346], for which the MIC was less than 16 µg/mL.

As to `NCCCN(CCc1ccncc1)Cc1ccc(-c2c[nH]c(NC(=O)Nc3ccccc3OC(F)(F)F)nc2=O)cc1` [Compound 347], the MIC was more than 16 µg/mL.

Take `N=C(N)NCCCN(CCCN)Cc1ccc(-c2c[nH]c(NC(=O)Nc3cc(F)c(F)cc3F)nc2=O)cc1` [Compound 348]: the MIC is more than 16 µg/mL.

For the compound `N=C(N)NCCCN(CCCN)Cc1ccc(-c2c[nH]c(NC(=O)Nc3ccccc3OC(F)(F)F)nc2=O)cc1` [Compound 349], the MIC was less than 16 µg/mL.

For the origin of these results see US9845297B2, “Antimicrobial compounds and methods of making and using the same” (Melinta Therapeutics, Inc., priority 2009, dated 2017).
